Patent US5278045A, “Method and compositions to screen compounds for enhancement of the cholinergic, dopaminergic and serotonergic function” (Du Pont Merck Pharmaceutical Company, priority 1990, dated 1994)

Experiments:
[1] = test system: Detergent Solubilized Rat Brain Membrane Proteins; test: Specific [^3 H]DuP 996 binding to detergent solubilized rat brain membrane proteins; conditions: 10 nM tritiated DuP 996
Procedure: […] The mixture was centrifuged at 47,000×g for 20 minutes. The supernatant containing the solubilized protein was collected. The supernatant from centrifugation of brain membranes without detergent was used as the control.
Fifty μl aliquots of the solubilized membrane protein were incubated with 0.2 ml of 50 mM Tris-HCl, pH 7.4, with 0.1% bovine serum albumin, and 10 nM tritiated DuP 996 in a total volume of 0.325 ml. Nonspecific binding was determined in the presence of 10 μM DuP 996. After 1 hour of incubation at 25° C., 0.5 ml of ice-cold 0.1M sodium phosphate buffer, pH 7.4, with 0.1% bovine gamma globulin was added. The sample was put on ice and then 0.5 ml of 25% (w/v) polyethylene glycol 8000 was added and mixed. The sample was put on ice for 10 to 15 minutes and filtered through Whatman GF/B filters which had been presoaked in 0.2% polyethylenimine. The filtered sample was washed twice with 3 ml each of ice cold 8% polyethylene glycol 8000 in 100 mM Tris-HCl, pH 7.4. Bound radioactivity retained on the filters was counted in a liquid scintillation counter.

DuP 996 binding protein [2] = test: Radioreceptor screening assay (displacement of tritiated DuP 996); parameters: species or system rat; conditions: inhibition of binding of 10 nM tritiated DuP 996, pH 7.4, 25° C., 60 minutes
Procedure: Male Sprague-Dawley rats (Charles River Breeding Laboratories) at 200-250 g were euthanatized by decapitation. Rat brain regions were dissected according to Heffner et al., Pharmacol. Biochem. Behav., 13, 453 (1980). Brain membranes were prepared by the method of Tam, Proc. Natl. Acad. Sci. USA, 80, 6703 (1983). The brain tissues were homogenized (20 sec) in 10 vol (wt/vol) of ice-cold 0.32M sucrose with a Brinkman Polytron (setting 8). The homogenate was centrifuged at 920×g for 10 min at 4° C. The supernatant was centrifuged at 47,000×g for 20 min. The resulting membrane pellet was resuspended in 10 vol (original wt/vol) of 50 mM Tris-HCl (pH 7.4) and incubated at 37° C. for 30 min to degrade and dissociate bound endogenous ligands. The membranes were then centrifuged at 47,000×g for 20 min and resuspended in 50 mM Tris-HCl.
Compounds to be screened were incubated with brain membranes. (1-2 mg protein) in 50 mM Tris-HCl buffer, pH 7.4, for 10 minutes in 25° C. Then 10 nM tritiated DuP 996 or its active structural analogs were added and incubated at 25° C. for 60 minutes. The samples were filtered on Whatman GF/B glass filters which had been soaked in 0.2% polyethylenimine and washed 3 times each with 5 ml of ice-cold Tris buffer. Nonspecific binding was determined by performing binding in the presence of 10 μM DuP 996. The control represents specific binding in the absence of compounds to be screened. Screened compounds which inhibited the specific binding of tritiated DuP 996 or analogs to its binding protein should be active in binding to the same protein. This is illustrated further in Example 4, Part B.

DuP 996 binding protein [3] = test: Trypsin pretreatment, binding of tritiated DuP 996; parameters: species or system rat; conditions: 0.1-100 μg/ml trypsin, 25° C., 10 min
Procedure: One ml aliquots of brain membranes (1-2 mg of protein) in 50 mM Tris-HCl buffer, pH 7.4, were incubated with 0.1-100 μg/ml of trypsin (17,000 BAEE units/mg protein) at 25° C. for 10 min. 10 nM of tritiated DuP 996 was added and incubated for 45 min at 25° C. […]. Samples were filtered on Whatman GF/B filters which had been presoaked in 0.2% polyethylenimine under negative pressure and washed 3 times with ice-cold buffer. Nonspecific binding was determined in the presence of 10 μM DuP 996.

DuP 996 binding protein [4] = test: Phospholipase C pretreatment, binding of tritiated DuP 996; parameters: species or system rat; conditions: 5-50 μg/ml phospholipase C, 10 min, 37° C.
Procedure: One ml aliquots of brain membranes (1-2 mg of protein) in 50 mM Tris-HCl buffer, pH 7.4, were incubated with 5-50 μg/ml of phospholipase C for 10 min at 37° C. 10 nM of tritiated DuP 996 was added and incubated for 45 min at 25° C. Samples were filtered on Whatman GF/B filters which had been presoaked in 0.2% polyethylenimine under negative pressure and washed 3 times with ice-cold buffer. Nonspecific binding was determined in the presence of 10 μM DuP 996.

Alzheimer's patients = conditions: clinical trials with cholinesterase inhibitors, literature; cited from earlier work
ACh release = test: Neurotransmitter release assay: stimulated ACh release from brain slices; parameters: species or system rat; conditions: concentration to enhance stimulated release of ACh by 100% (2-fold) over control, from dose response curves
Procedure: Male Wistar rats weighing 175-200 g were euthanatized and the brains were dissected out immediately. Slices (0.3 mm thick) from the parietal cortex were prepared manually by using a recessed Lucite® guide. Slices (1.5 mm thick) from the hippocampus and the caudate nucleus were prepared by using a slotted brain holder. All slices were subsequently cut into 0.25×0.25 mm squares with a McIlwain tissue chopper.
Labeling of transmitter stores in slices was prepared by the following methods. For ACh release, slices (approximately 100 mg wet weight) were incubated in 10 ml Krebs-Ringer (KR) medium containing (mM): NaCl(116), KCl(3), CaCl2 (1.3), MgCl2 (1.2), KH2 PO4 (1.2), Na2 SO4 (1.2), NaHCO3 (25) and glucose(11), to which 10 μCi ^3 H-choline (specific activity approx. 80 Ci/mmol: NEN) and 10 nmol unlabeled choline had been added to give a final concentration of 10^-6 M. Incubation was carried out for 30 min at 37° C. under a steady flow of 95% O2 /5% CO2. Under these conditions, part of the radioactive choline taken up is converted into radioactive ACh by cholinergic nerve endings, stored in synaptic vesicles, and released upon depolarization by high-K^+ -containing medium [Molenaar et al., 1973a]. For dopamine (DA), serotonin (5-HT), and norepinephrine (NE) release, slices (approximately 100 mg wet weight) were incubated in KR medium containing 0.01 mM nialamide at 37° C. under a steady flow of 95% O2 /5% CO2. The MAO-inhibitor nialamide was added to the medium in order to inhibit metabolism to the monoamines. Incubation was for 30 min in 10 ml of KR medium to which 10 μCi ^3 H-dopamine, ^3 H-norepinephrine, or ^3 H-5-hydroxytryptamine (specific activity 30, 45, and 78 Ci/mmol, respectively: all from NEN) had been added.
Separate experiments were performed for the release of each neurotransmitter. After labeling of the transmitter stores, the slices were washed three times with non-radioactive KR medium and transferred to a superfusion apparatus to measure the drug effects on transmitter release [Schoemaker et al., Psychopharmacology 74, 137 (1981)]. The superfusion apparatus consisted of 10 thermo-jacketed glass columns of 5 mm diameter which were provided with GF/F glass fiber filters to support the brain slices (approximately 10 mg tissue/column). Superfusion was carried out with KR medium at a rate of 0.3 ml/min. For ACh release, 10^-5 M hemicholinium-3 was added to the medium to prevent the uptake of choline formed during superfusion from phospholipids and released ACh, so that it could not be subsequently converted into newly synthesized ACh, which would be released in preference to the pre-formed, labeled ACh. The medium was delivered by a 25-channel peristaltic pump (Ismatec; Brinkman) and maintained at 37° C. by a thermostated stainless-steel heating coil before entering the superfusion column. Each column was provided with a four-way slider valve (Beckman Instruments) which allowed rapid change of low-to-high-K^+ -KR-medium and with two 10-channel, 3-way valves which were used to change form drug-free to drug-containing low- and high-K^+ -KR media.
After 15 min washout of non-specifically bound radioactivity during superfusion, the collection of fractions of 4 min (1.2 ml) each was started. After 3×4 min, the KR medium was changed to a KR medium with 25 mM KCl (ACh, 5-HT release) or 12.5 mM KCl (DA release) (high K^+ -KR medium; S1). Depolarization-induced stimulation of release by high-K^+ -KR medium was then substituted by drug- or vehicle-containing low- and high-K^+ -KR medium and superfusion continued for 3×4 min with low-K^+ -KR medium, for 1×4 min with high-K^+ -KR medium (S2), and for 2×4 min with low-K^+ -KR medium.
Compounds were added to the medium by 100-fold dilution of appropriate stock solutions (in 0.9% NaCl/H2 O) with either low- or high-K^+ -KR medium.
All superfusion fractions were collected in liquid scintillation counting vials.

## O=C1N(c2ccccc2)c2ccccc2C1(Cc1ccncc1)Cc1ccncc1 [Compound 7, 3,3-Bis(4-pyridinylmethyl)-1-phenylindolin-2-one]
[1]; CHAPS, 20 mM
  SPECIFIC BINDING: 868 dpm
[1]; NP40
  SPECIFIC BINDING: 348 dpm
[1]; Octyl glucoside, 0.4%
  SPECIFIC BINDING: 511 dpm
[1]; Triton X-100, 1%
  SPECIFIC BINDING: 0 dpm
[1]; Tween 80, 1%
  SPECIFIC BINDING: 134 dpm
DuP 996 binding protein [2]
  IC50: 0.056 µM
DuP 996 binding protein [3]
  tritiated DuP 996 binding activity after trypsin preincubation: loss of tritiated DuP 996 binding activity
DuP 996 binding protein [4]
  DuP 996 binding activity after preincubation with phospholipase C: no effect on the DuP 996 binding activity

## CNC(=O)Oc1ccc2c(c1)[C@]1(C)CCN(C)[C@@H]1N2C [physostigmine]
Alzheimer's patients
  cognitive measures in Alzheimer's patients: limited improvement in cognitive measures

## c1ccc(CC2(Cc3ccccn3)c3ccccc3-c3ccccc32)nc1 [Compound 29, 2-[9-(2-pyridinylmethyl)-9H-fluoren-9-ylmethyl]-pyridine]
DuP 996 binding protein [2]
  IC50: 1100 µM
ACh release
  ACh Release EC100: 990,000 nM

## O=C1N(Cc2ccccc2)c2ccccc2C1(Cc1ccncc1)Cc1ccncc1 [Compound 19, 3,3-Bis(4-pyridinyl-methyl)-1,3-dihydro-1-(phenylmethyl)-2H-indol-2-one]
DuP 996 binding protein [2]
  IC50: 1.17 µM
ACh release
  ACh Release EC100: 4,500 nM

## O=C1N(c2ccccc2)c2ccccc2C1(Cc1ccncc1)Cc1ccncn1 (stereo not drawn) [Compound 13, 1,3-Dihydro-1-phenyl-3-(4-pyridinylmethyl)-3(4-pyrimidinylmethyl)-2H-indol-2-one]
DuP 996 binding protein [2]
  IC50: 0.179 µM
ACh release
  ACh Release EC100: 1,500 nM

## O=C1N(c2ccccc2)c2ccccc2C1(c1cncnc1)c1cncnc1 [Compound 24, 3,3-Bis(5-pyrimidinyl)-1,3-dihydro-1-phenyl-2H-indol-2-one]
DuP 996 binding protein [2]
  IC50: 75.9 µM
ACh release
  ACh Release EC100: 980,000 nM

## Cc1ccc2c(c1)N(c1ccccc1)C(=O)C2(Cc1ccncc1)Cc1ccncc1 [Compound 14, 3,3-Bis(4-pyridinylmethyl)-1,3-dihydro-6-methyl-1-phenyl-2H-indol-2-one]
DuP 996 binding protein [2]
  IC50: 0.198 µM
ACh release
  ACh Release EC100: 4,800 nM

## O=C1c2c(Cl)cccc2C(Cc2ccncc2)(Cc2ccncc2)c2cccc(Cl)c21 [Compound 3, 10,10-Bis-(4-pyridinylmethyl)-1,8-dichloro-9(10H)-anthracenone]
DuP 996 binding protein [2]
  IC50: 0.032 µM
ACh release
  ACh Release EC100: 170 nM
